From patent publication US20240245783A1, “METALLO-BETA-LACTAMASE INHIBITOR” (priority 2021, published 2024)

Experiments:
[1] = tested on: E. coli clinical isolate expressing IMP-1; assay: Meropenem MIC against E. coli clinical isolate expressing IMP-1 (Test Example 10); assay type: cell-based; details: Escherichia coli, 24 h, read-out: minimum inhibitory concentration
Experimental: The enhancing effect of DTPA-ADCA on the susceptibility of E. coli clinical isolate expressing IMP-1 to a carbapenem antibacterial agent (meropenem) was evaluated by the following method. The E. coli clinical isolate was cultured overnight with shaking in LB medium. The bacterial solution was diluted to 1/1000 with LB medium, used as a test bacterial solution, and then seeded in a 96-well plate. Meropenem (Wako Pure Chemical Industries, Ltd.) was added to the bacterial solution, thereby performing two-step dilution from a maximum of 10 μg/ml. The bacteria were cultured in an incubator at 37° C. for one day, and growth at that time was measured by turbidity (655 nm). The meropenem concentration at which no bacterial growth had been observed was defined as the minimum inhibitory concentration.
The effect of DTPA-ADCA on the susceptibility of an E. coli clinical isolate to meropenem was evaluated by the following method. The E. coli clinical isolate was cultured overnight with shaking in LB medium. The bacterial solution was diluted to 1/1000 with LB medium, used as the test bacterial solution, and then seeded in a 96-well plate. Meropenem (Wako Pure Chemical Industries, Ltd.) was added to this bacterial solution in the range of 0.1 μg/ml to 0.005 μg/ml. Here, DTPA or DTPA-ADCA was used in combination therewith at a concentration of […], and the effect on bacterial growth was examined. The bacteria were cultured in an incubator at 37° C. for one day, and the growth at that time was measured by turbidity (655 nm).
FIG. 20 depicts the results. Multidrug-resistant E. coli was cultured with compounds having the indicated concentrations and the bacterial load was assessed by turbidity after 24 hours. […] Combined use of DTPA-ADCA (20 μM) reduced the minimum inhibitory concentration of meropenem to […] and enhanced the antibacterial activity by 100 times.

[2] = tested on: IMP-1-expressing Klebsiella pneumoniae; assay: Survival of Leukopenia mice infected with IMP-1-expressing Klebsiella pneumoniae (Test Example 6); assay type: in vivo; details: meropenem 10 mg/kg alone subcutaneously; 48 hours; Leukopenia ddY mice
Experimental: DTPA-conjugated cefalexin (compound 1)'s effect of enhancing the drug susceptibility of pathogenic bacteria was examined by an in vivo experiment using bacteria-infected mice. To prepare a compromised Leukopenia mouse model, 0.1 mL of cyclophosphamide monohydrate (Sigma-Aldrich) prepared with PBS was administered intraperitoneally to 4-week-old male ddY mice (Japan SLC) at 250 mg/kg at 4 days before infection. IMP-1-expressing Klebsiella pneumoniae used herein was a clinical isolate provided by Kumamoto University Hospital. The bacteria were cultured overnight with shaking in LB medium at 37° C., then diluted 50-fold with LB medium, and further cultured with shaking, so that the turbidity (600 nm) was 1.5 or higher. The bacteria were centrifuged to remove the medium, washed twice with PBS, and then diluted with PBS to 5×10^5 CFU/mL. In the mouse infection experiment, each Leukopenia mouse was infected with 0.1 mL (5×10^4 CFU) of IMP-1-expressing Klebsiella pneumoniae by intraperitoneal injection. Thirty minutes after infection, 0.1 mL of a mixed solution containing meropenem (Wako Pure Chemical Industries, Ltd.) and compound 1 (DTPA-CEF) was subcutaneously administered to each mouse of a treatment mouse group at 10 mg/kg and 50 mg/kg, respectively. […] Forty-eight hours after infection, mice were assessed for viability. […]

[3] = tested on: multidrug-resistant Pseudomonas aeruginosa; assay: Growth suppression of multidrug-resistant Pseudomonas aeruginosa clinical isolates (Test Example 7); assay type: cell-based; details: MEPM 2 μg/ml alone, compound 8 20 μM (15.5 μg/ml) alone, Combination = both, 3 wells
Experimental: The effect of NODA-GA-conjugated doripenem (compound 8) on the susceptibility of a Pseudomonas aeruginosa clinical isolate to a carbapenem antibacterial agent was evaluated by the following method. The Pseudomonas aeruginosa clinical isolate was cultured overnight with shaking in LB medium. The bacterial solution was diluted to 1/1000 with LB medium, used as a test bacterial solution, and then seeded in a 96-well plate. Meropenem (Wako Pure Chemical Industries, Ltd.) was added to this bacterial solution in such a manner that the concentration was 2 μg/ml. The effect of NODA-GA-doripenem alone was also examined. The bacteria were cultured in an incubator at 37° C. for one day, and the growth at that time was measured by turbidity (655 nm).
MEPM in Table 1 is meropenem (2 μg/ml) administered alone; NODA-GA-doripenem is compound 8 (20 μM; 15.5 μg/ml) administered alone; Combination means a combined use of meropenem (2 μg/ml) and compound 8 (20 μM; 15.5 μg/ml).

`C[C@@H](O)[C@H]1C(=O)N2C(C(=O)O)=C(S[C@@H]3CN[C@H](C(=O)N(C)C)C3)[C@H](C)[C@H]12` [meropenem, reference compound] was tested, and the MIC [1] was 10 µg/mL, the survival [2] was “All mice of the meropenem administration group died” and the “suppression of bacterial growth” value ([3]; strain 808#1) was “X (x indicates that the number of wells in which suppression of bacterial growth was confirmed was 1 or less)”. For the same compound, the “suppression of bacterial growth” value ([3]; strain 808#2) was “X (x indicates that the number of wells in which suppression of bacterial growth was confirmed was 1 or less)”, the “suppression of bacterial growth” value ([3]; strain MR1) was “X (x indicates that the number of wells in which suppression of bacterial growth was confirmed was 1 or less)” and the “suppression of bacterial growth” value ([3]; strain MR2) was “X (x indicates that the number of wells in which suppression of bacterial growth was confirmed was 1 or less)”. For the same compound, the “suppression of bacterial growth” value ([3]; strain MR3) was “X (x indicates that the number of wells in which suppression of bacterial growth was confirmed was 1 or less)”, the “suppression of bacterial growth” value ([3]; strain MR4) was “X (x indicates that the number of wells in which suppression of bacterial growth was confirmed was 1 or less)” and the “suppression of bacterial growth” value ([3]; strain MR5) was “X (x indicates that the number of wells in which suppression of bacterial growth was confirmed was 1 or less)”. The “suppression of bacterial growth” value ([3]; strain MR6) was “X (x indicates that the number of wells in which suppression of bacterial growth was confirmed was 1 or less)”, the “suppression of bacterial growth” value ([3]; strain MR7) was “X (x indicates that the number of wells in which suppression of bacterial growth was confirmed was 1 or less)” and the “suppression of bacterial growth” value ([3]; strain MR8) was “X (x indicates that the number of wells in which suppression of bacterial growth was confirmed was 1 or less)”. For the same compound, the “suppression of bacterial growth” value ([3]; strain MR9) was “X (x indicates that the number of wells in which suppression of bacterial growth was confirmed was 1 or less)”, the “suppression of bacterial growth” value ([3]; strain MR10) was “X (x indicates that the number of wells in which suppression of bacterial growth was confirmed was 1 or less)” and the “suppression of bacterial growth” value ([3]; strain MR11) was “X (x indicates that the number of wells in which suppression of bacterial growth was confirmed was 1 or less)”. For the same compound, the “suppression of bacterial growth” value ([3]; strain MR12) was “X (x indicates that the number of wells in which suppression of bacterial growth was confirmed was 1 or less)”, the “suppression of bacterial growth” value ([3]; strain MR13) was “X (x indicates that the number of wells in which suppression of bacterial growth was confirmed was 1 or less)” and the “suppression of bacterial growth” value ([3]; strain MR14) was “X (x indicates that the number of wells in which suppression of bacterial growth was confirmed was 1 or less)”. For the same compound, the “suppression of bacterial growth” value ([3]; strain MR15) was “X (x indicates that the number of wells in which suppression of bacterial growth was confirmed was 1 or less)”, the “suppression of bacterial growth” value ([3]; strain MR16) was “X (x indicates that the number of wells in which suppression of bacterial growth was confirmed was 1 or less)” and the “suppression of bacterial growth” value ([3]; strain NM1) was “X (x indicates that the number of wells in which suppression of bacterial growth was confirmed was 1 or less)”. The “suppression of bacterial growth” value ([3]; strain NM2) was “X (x indicates that the number of wells in which suppression of bacterial growth was confirmed was 1 or less)”, the “suppression of bacterial growth” value ([3]; strain NM3) was “X (x indicates that the number of wells in which suppression of bacterial growth was confirmed was 1 or less)” and the “suppression of bacterial growth” value ([3]; strain NM4) was “X (x indicates that the number of wells in which suppression of bacterial growth was confirmed was 1 or less)”. For the same compound, the “suppression of bacterial growth” value ([3]; strain NM5) was “X (x indicates that the number of wells in which suppression of bacterial growth was confirmed was 1 or less)”.
